Consider 26 molecules from patent US6943183B2 (Pfizer Inc, priority 2000, dated 2005).

This test concerns the target T1, SF9 affinity purified rat FPT (Rattus norvegicus, UniProt Q02293+Q04631).
T1 construct: made in house; host or cells: Sf9 insect cells
Nature of the test: PFT (FPT) inhibitory activity assay, radiolabeled farnesyl pyrophosphate and biotinyl peptide, streptavidin beads. The following applies: HEPES buffer pH 7.4, 30° C., 30 minutes; read-out: FTase IC50. Format: biochemical. The procedure, abridged: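 Rat FPT expressed in SF9 cells was incubated 30 minutes at 30° C. with compound (in 10% DMSO), radiolabeled farnesyl pyrophosphate and biotinylated peptide. Buffer: HEPES pH 7.4, ZnCl2 20 μM, MgCl2 and DTT 5 mM each, 0.1% PEG 8000, 5 mM potassium phosphate (also run without phosphate). Product captured on streptavidin beads in magnesium acetate/H3PO4 stop buffer.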
For `O=C(O)CCNC(=O)c1ccccc1S(=O)(=O)Cc1c(O[C@H](Cn2ccnc2)c2ccccc2)ccc2c1CCCC2=O` [Compound 167, N-2-{[(2-{[(1S)-2-(1H-Imidazol-1-yl)-1-phenylethyl]oxy}-5-oxo-5,6,7,8-tetrahydro-1-naphthalenyl)methyl]sulfonyl}benzoyl-β-alanine], the IC50 amounted to 7 nM.

Consider `O=C(O)CCNC(=O)c1cccc(S(=O)(=O)Cc2c(O[C@H](Cn3ccnc3)c3ccccc3)ccc3c2CCCC3=O)c1` [Compound 168, N-3-{[(2-{[(1S)-2-(1H-Imidazol-1-yl)-1-phenylethyl]oxy}-5-oxo-5,6,7,8-tetrahydro-1-naphthalenyl)methyl]sulfonyl}benzoyl-β-alanine], for which the IC50 was 10 nM.

As for `O=C(O)CCNC(=O)c1ccccc1SCc1c(O[C@H](Cn2ccnc2)c2ccccc2)ccc2c1CCCC2=O` [Compound 169, N-2-{[(2-{[(1S)-2-(1H-Imidazol-1-yl)-1-phenylethyl]oxy}-5-oxo-5,6,7,8-tetrahydro-1-naphthalenyl)methyl]sulfanyl}benzoyl-β-alanine], the IC50 was determined as 7 nM.

For `O=C(O)CCNC(=O)c1ccc(SCc2c(O[C@H](Cn3ccnc3)c3ccccc3)ccc3c2CCCC3=O)cc1` [Compound 170, N-4-{[(2-{[(1S)-2-(1H-Imidazol-1-yl)-1-phenylethyl]oxy}-5-oxo-5,6,7,8-tetrahydro-1-naphthalenyl)methyl]sulfanyl}benzoyl-β-alanine], the IC50 was 7 nM.

For the molecule `O=C(O)CCNC(=O)c1cccc(SCc2c(O[C@H](Cn3ccnc3)c3ccccc3)ccc3c2CCCC3=O)c1` [Compound 171, N-3-{[(2-{[(1S)-2-(1H-Imidazol-1-yl)-1-phenylethyl]oxy}-5-oxo-5,6,7,8-tetrahydro-1-naphthalenyl)methyl]sulfanyl}benzoyl-β-alanine], the IC50 amounted to 6 nM.

Regarding `O=C(NCCO)c1cccc(SCc2c(O[C@H](Cn3ccnc3)c3ccccc3)ccc3c2CCCC3=O)c1` [Compound 172, N-(2-Hydroxyethyl)-3-{[(2-{[(1S)-2-(1H-imidazol-1-yl)-1-phenylethyl]oxy}-5-oxo-5,6,7,8-tetrahydro-1-naphthalenyl)methyl]sulfanyl}benzamide], the IC50 came out at 5 nM.

`O=C(NCCO)c1ccccc1SCc1c(O[C@H](Cn2ccnc2)c2ccccc2)ccc2c1CCCC2=O` [Compound 173, N-(2-Hydroxyethyl)-2-{[(2-{[(1S)-2-(1H-imidazol-1-yl)-1-phenylethyl]oxy}-5-oxo-5,6,7,8-tetrahydro-1-naphthalenyl)methyl]sulfanyl}benzamide]: the IC50 stood at 4 nM.

Turning to `O=C(NCCO)c1ccc(SCc2c(O[C@H](Cn3ccnc3)c3ccccc3)ccc3c2CCCC3=O)cc1` [Compound 174, N-(2-Hydroxyethyl)-4-{[(2-{[(1S)-2-(1H-imidazol-1-yl)-1-phenylethyl]oxy}-5-oxo-5,6,7,8-tetrahydro-1-naphthalenyl)methyl]sulfanyl}benzamide], the IC50 turned out to be 3 nM.

With `O=C(NCCO)c1ccc(S(=O)(=O)Cc2c(O[C@H](Cn3ccnc3)c3ccccc3)ccc3c2CCCC3=O)cc1` [Compound 175, N-(2-Hydroxyethyl)-4-{[(2-{[(1S)-2-(1H-imidazol-1-yl)-1-phenylethyl]oxy}-5-oxo-5,6,7,8-tetrahydro-1-naphthalenyl)methyl]sulfonyl}benzamide], the 50% inhibitory concentration (IC50) is 10 nM.

With `O=C(NCCO)c1cccc(S(=O)(=O)Cc2c(O[C@H](Cn3ccnc3)c3ccccc3)ccc3c2CCCC3=O)c1` [Compound 176, N-(2-Hydroxyethyl)-3-{[(2-{[(1S)-2-(1H-imidazol-1-yl)-1-phenylethyl]oxy}-5-oxo-5,6,7,8-tetrahydro-1-naphthalenyl)methyl]sulfonyl}benzamide], the IC50 worked out at 7 nM.

Regarding `CN(C)CCNC(=O)c1ccc(SCc2c(O[C@H](Cn3ccnc3)c3ccccc3)ccc3c2CCCC3=O)cc1` [Compound 177, N-[2-(Dimethylamino)ethyl]-4-{[(2-{[(1S)-2-(1H-imidazol-1-yl)-1-phenylethyl]oxy}-5-oxo-5,6,7,8-tetrahydro-1-naphthalenyl)methyl]sulfanyl}benzamide], the IC50 came to 3 nM.

`CN(C)CCNC(=O)c1cccc(SCc2c(O[C@H](Cn3ccnc3)c3ccccc3)ccc3c2CCCC3=O)c1` [Compound 178, N-[2-(Dimethylamino)ethyl]-3-{[(2-{[(1S)-2-(1H-imidazol-1-yl)-1-phenylethyl]oxy}-5-oxo-5,6,7,8-tetrahydro-1-naphthalenyl)methyl]sulfanyl}benzamide]: the 50% inhibitory concentration (IC50) was 8 nM.

In the case of `CN(C)CCNC(=O)c1ccccc1SCc1c(O[C@H](Cn2ccnc2)c2ccccc2)ccc2c1CCCC2=O` [Compound 179, N-[2-(Dimethylamino)ethyl]-2-{[(2-{[(1S)-2-(1H-imidazol-1-yl)-1-phenylethyl]oxy}-5-oxo-5,6,7,8-tetrahydro-1-naphthalenyl)methyl]sulfanyl}benzamide], the IC50 was determined as 6 nM.

Take `CN(C)CCNC(=O)c1ccccc1S(=O)(=O)Cc1c(O[C@H](Cn2ccnc2)c2ccccc2)ccc2c1CCCC2=O` [Compound 180, N-[2-(Dimethylamino)ethyl]-2-{[(2-{[(1S)-2-(1H-imidazol-1-yl)-1-phenylethyl]oxy}-5-oxo-5,6,7,8-tetrahydro-1-naphthalenyl)methyl]sulfonyl}benzamide]: the IC50 amounted to 6 nM.

On to `CN(C)CCNC(=O)c1ccc(S(=O)(=O)Cc2c(O[C@H](Cn3ccnc3)c3ccccc3)ccc3c2CCCC3=O)cc1` [Compound 181, N-[2-(Dimethylamino)ethyl]-4-{[(2-{[(1S)-2-(1H-imidazol-1-yl)-1-phenylethyl]oxy}-5-oxo-5,6,7,8-tetrahydro-1-naphthalenyl)methyl]sulfonyl}benzamide], for which the concentration for half-maximal inhibition (IC50) came to 20 nM.

As for `CN(C)CCNC(=O)c1cccc(S(=O)(=O)Cc2c(O[C@H](Cn3ccnc3)c3ccccc3)ccc3c2CCCC3=O)c1` [Compound 182, N-[2-(Dimethylamino)ethyl]-3-{[(2-{[(1S)-2-(1H-imidazol-1-yl)-1-phenylethyl]oxy}-5-oxo-5,6,7,8-tetrahydro-1-naphthalenyl)methyl]sulfonyl}benzamide], the IC50 was found to be 10 nM.

With `CCOC(=O)CCNC(=O)c1ccccc1S(=O)(=O)Cc1c(O[C@H](Cn2ccnc2)c2ccccc2)ccc2c1CCCC2=O` [Compound 183, Ethyl 3-[(2-{[(2-{[(1S)-2-(1H-Imidazol-1-yl)-1-phenylethyl]oxy}-5-oxo-5,6,7,8-tetrahydro-1-naphthalenyl)methyl]sulfonyl}benzoyl)amino]propanoate], the IC50 was found to be 7 nM.

As to `CCOC(=O)C(C)NC(=O)c1ccccc1S(=O)(=O)Cc1c(O[C@H](Cn2ccnc2)c2ccccc2)ccc2c1CCCC2=O` (stereo partly drawn) [Compound 185, Ethyl 2-[(2-{[(2-{[(1S)-2-(1H-Imidazol-1-yl)-1-phenylethyl]oxy}-5-oxo-5,6,7,8-tetrahydro-1-naphthalenyl)methyl]sulfonyl}benzoyl)amino]propanoate], the IC50 is 4 nM.

For `CCOC(=O)C(C)NC(=O)c1ccccc1SCc1c(O[C@H](Cn2ccnc2)c2ccccc2)ccc2c1CCCC2=O` (stereo partly drawn) [Compound 186, Ethyl 2-[(2-{[(2-{[(1S)-2-(1H-Imidazol-1-yl)-1-phenylethyl]oxy}-5-oxo-5,6,7,8-tetrahydro-1-naphthalenyl)methyl]sulfanyl}benzoyl)amino]propanoate], the concentration for half-maximal inhibition (IC50) came out at 4 nM.

In the case of `CCOC(=O)CCNC(=O)c1ccccc1SCc1c(O[C@H](Cn2ccnc2)c2ccccc2)ccc2c1CCCC2=O` [Compound 187, Ethyl 3-[(2-{[(2-{[(1S)-2-(1H-Imidazol-1-yl)-1-phenylethyl]oxy}-5-oxo-5,6,7,8-tetrahydro-1-naphthalenyl)methyl]sulfanyl}benzoyl)amino]propanoate], the IC50 amounted to 7 nM.

Turning to `CNC(=O)c1ccc(S(=O)(=O)Cc2c(O[C@H](Cn3ccnc3)c3ccccc3)ccc3c2CCCC3=O)cc1` [Compound 189, 4-{[(2-{[(1S)-2-(1H-2-Imidazol-1-yl)-1-phenylethyl]oxy}-5-oxo-5,6,7,8-tetrahydro-1-naphthalenyl)methyl]sulfonyl}-N-methylbenzamide], the IC50 came out at 10 nM.

For `CNC(=O)c1cccc(S(=O)(=O)Cc2c(O[C@H](Cn3ccnc3)c3ccccc3)ccc3c2CCCC3=O)c1` [Compound 190, 3-{[(2-{[(1S)-2-(1H-imidazol-1-yl)-1-phenylethyl]oxy}-5-oxo-5,6,7,8-tetrahydro-1-naphthalenyl)methyl]sulfonyl}-N-methylbenzamide], the half-inhibitory concentration (IC50) amounted to 8 nM.

`CNC(=O)c1ccc(SCc2c(O[C@H](Cn3ccnc3)c3ccccc3)ccc3c2CCCC3=O)cc1` [Compound 191, 4-{[(2-{[(1S)-2-(1H-Imidazol-1-yl)-1-phenylethyl]oxy}-5-oxo-5,6,7,8-tetrahydro-1-naphthalenyl)methyl]sulfanyl}-N-methylbenzamide]: the IC50 turned out to be 2 nM.

Consider `CNC(=O)c1cccc(SCc2c(O[C@H](Cn3ccnc3)c3ccccc3)ccc3c2CCCC3=O)c1` [Compound 192, 3-{[(2-{[(1S)-2-(1H-Imidazol-1-yl)-1-phenylethyl]oxy}-5-oxo-5,6,7,8-tetrahydro-1-naphthalenyl)methyl]sulfanyl}-N-methylbenzamide], for which the IC50 was 7 nM.

For the molecule `CNC(=O)c1ccccc1SCc1c(O[C@H](Cn2ccnc2)c2ccccc2)ccc2c1CCCC2=O` [Compound 193, 2-{[(2-{[(1S)-2-(1H-Imidazol-1-yl)-1-phenylethyl]oxy}-5-oxo-5,6,7,8-tetrahydro-1-naphthalenyl)methyl]sulfanyl}-N-methylbenzamide], the IC50 stood at 5 nM.

For the molecule `C[C@@H](O)CNC(=O)c1ccccc1SCc1c(O[C@H](Cn2ccnc2)c2ccccc2)ccc2c1CCCC2=O` [Compound 194, N-[(2R)-2-Hydroxypropyl]-2-{[(2-{[(1S)-2-(1H-imidazol-1-yl)-1-phenylethyl]oxy}-5-oxo-5,6,7,8-tetrahydro-1-naphthalenyl)methyl]sulfanyl}benzamide], the IC50 amounted to 0.2 nM.
